From patent US20080124285A1, “Merocyanine Derivatives for Cosmetic Use” (priority 2003, published 2008)

Test: UV absorption maximum (λmax) in solvent
Format: physicochemical
Settings: acetonitril; preparation example

Row | Structure (SMILES) | λmax
1 | CCOC(=O)/C(C#N)=C1\C=C(NCCNC2=C/C(=C(/C#N)C(=O)OCC)CC(C)(C)C2)CC(C)(C)C1 [MC02] | 389 nm

Same assay, conditions: ethanol; preparation example

Row | Structure (SMILES) | λmax
2 | CCOC(=O)/C(C#N)=C1\C=C(N2CCN(C3=C/C(=C(/C#N)C(=O)OCC)CC(C)(C)C3)CC2)CC(C)(C)C1 [MC07] | 406 nm
3 | CCOC(=O)C(C(=O)OCC)=C1C=C(NC2CCCCC2NC2=CC(=C(C(=O)OCC)C(=O)OCC)CC(C)(C)C2)CC(C)(C)C1 (centres unmarked) [MC10] | 373 nm

Same assay, conditions: in Acetonitril; Table MC1a (intermediates, UV-B absorbers)

Row | Structure (SMILES) | λmax [nm]
4 | CC1(C)CC(=O)C=C(NC2CCCCC2NC2=CC(=O)CC(C)(C)C2)C1 (centres unmarked) [MC08a] | 295(Acetonitril) nm

Same assay, conditions: in Acetonitrile; Table MC1

Row | Structure (SMILES) | λmax [nm]
5 | CC1(C)CC(NCC2(C)CC(NC3=CC(=C(C#N)C#N)CC(C)(C)C3)CC(C)(C)C2)=CC(=C(C#N)C#N)C1 (centres unmarked) [MC37] | 383(Aceto-nitrile) nm

Same assay, conditions: in EtOH; Table MC1

Row | Structure (SMILES) | λmax [nm]
6 | CCOC(=O)/C(C#N)=C1\C=C(NCCCCCCNC2=C/C(=C(/C#N)C(=O)OCC)CCC2)CCC1 [MC18] | 388(EtOH) nm
7 | CCCCC(CC)COC(=O)/C(C#N)=C1/C=C(NC2CCCCC2NC2=C/C(=C(\C#N)C(=O)OCC(CC)CCCC)CCC2)CCC1 (centres unmarked) [MC36] | 401(EtOH) nm
8 | CCOC(=O)/C(C#N)=C1\C=C(N2CCN(C3=C/C(=C(/C#N)C(=O)OCC)CC(C)(C)C3)CC2)CC(C)(C)C1 [MC07] | 406(EtOH) nm
9 | CCCCC(CC)COC(=O)/C(C#N)=C1/C=C(NCCNC2=C/C(=C(\C#N)C(=O)OCC(CC)CCCC)CC(C)(C)C2)CC(C)(C)C1 (centres unmarked) [MC01] | 366,398(EtOH) nm
10 | CCOC(=O)C(C(=O)OCC)=C1C=C(NCCCCCCNC2=CC(=C(C(=O)OCC)C(=O)OCC)CCC2)CCC1 [MC19] | 370(EtOH) nm
11 | CCOC(=O)/C(C#N)=C1\C=C(NC2CC(C)(C)CC(C)(CNC3=C/C(=C(\C#N)C(=O)OCC)CC(C)(C)C3)C2)CC(C)(C)C1 (centres unmarked) [MC24] | 391(EtOH) nm
12 | CCOC(=O)C(C(=O)OCC)=C1C=C(NCCNC2=CC(=C(C(=O)OCC)C(=O)OCC)CC(C)(C)C2)CC(C)(C)C1 [MC03] | 383(EtOH) nm
13 | CC1(C)CC(NC2CCCCC2NC2=CC(=C(C#N)C#N)CC(C)(C)C2)=CC(=C(C#N)C#N)C1 (centres unmarked) [MC34] | 357/388(EtOH)
14 | CCOC(=O)C(C(=O)OCC)=C1C=C(NCC2(C)CC(NC3=CC(=C(C(=O)OCC)C(=O)OCC)CC(C)(C)C3)CC(C)(C)C2)CC(C)(C)C1 (centres unmarked) [MC25] | 378(EtOH) nm
15 | CCOC(=O)/C(C#N)=C1\C=C(NCCNC2=C/C(=C(/C#N)C(=O)OCC)CC(C)(C)C2)CC(C)(C)C1 [MC02] | 366,398(EtOH) nm
16 | CCOC(=O)C(C(=O)OCC)=C1C=C(NC2CCCCC2NC2=CC(=C(C(=O)OCC)C(=O)OCC)CC(C)(C)C2)CC(C)(C)C1 (centres unmarked) [MC10] | 384(EtOH) nm
17 | COC(=O)C(C(=O)OC)=C1C=C(NC2CCCCC2NC2=CC(=C(C(=O)OC)C(=O)OC)CCC2)CCC1 (centres unmarked) [MC35] | 389(EtOH) nm
18 | CCOC(=O)C(C(=O)OCC)=C1C=C(N2CCN(C3=CC(=C(C(=O)OCC)C(=O)OCC)CC(C)(C)C3)CC2)CC(C)(C)C1 [MC08] | 373(EtOH) nm

Same assay, conditions: in EtOH; Table MC1a (intermediates, UV-B absorbers)

Row | Structure (SMILES) | λmax [nm]
19 | CC1(C)CC(=O)C=C(N2CCN(C3=CC(=O)CC(C)(C)C3)CC2)C1 [MC06a] | 309 (EtOH) nm
20 | CC1(C)CC(=O)C=C(NCCNC2=CC(=O)CC(C)(C)C2)C1 [MC01a] | 296 (EtOH) nm
